# Data reported in the supplement of paper PMC9663587.
# Columns and labels:
# Test in all cases: GRmax, 72 h; higher = less effect;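 further: breast cell lines in 384-well plates, nine doses across a 10^4 range, Dye Drop imaging of viable cells vs DMSO and time-zero plates, GR 0 means no net growth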
# [1] = tested on: HTERT_HME1
# [2] = tested on: MDAMB453
# [3] = tested on: HCC1937
# [4] = tested on: SUM159
# [5] = tested on: PDXHCI002
# [6] = tested on: HCC1806
# [7] = tested on: MDAMB330
# [8] = tested on: AU565
# [9] = tested on: CAL851
# [10] = tested on: MGH312
# [11] = tested on: MDAMB415
# [12] = tested on: BT474
Compound,"GRmax, 72 h [1]","GRmax, 72 h [2]","GRmax, 72 h [3]","GRmax, 72 h [4]","GRmax, 72 h [5]","GRmax, 72 h [6]","GRmax, 72 h [7]","GRmax, 72 h [8]","GRmax, 72 h [9]","GRmax, 72 h [10]","GRmax, 72 h [11]","GRmax, 72 h [12]","GRmax, 72 h ([1]; main component drawn)","GRmax, 72 h ([2]; main component drawn)","GRmax, 72 h ([3]; main component drawn)","GRmax, 72 h ([4]; main component drawn)","GRmax, 72 h ([5]; main component drawn)","GRmax, 72 h ([6]; main component drawn)","GRmax, 72 h ([9]; main component drawn)"
CS(=O)(=O)N1CCN(Cc2cc3nc(-c4cccc5[nH]ncc45)nc(N4CCOCC4)c3s2)CC1 [Pictilisib/GDC0941] (max 10 µM),0.126 GR,-0.374 GR,0.278 GR,0.2 GR,-0.0101 GR,0.194 GR,-0.817 GR,-0.405 GR,-0.0252 GR,-0.923 GR,-0.687 GR,-0.828 GR,,,,,,,
O=C1NC(=O)[C@@H](c2cn3c4c(cccc24)CCC3)[C@@H]1c1c[nH]c2ccccc12 [Tivantinib/ARQ197] (max 10 µM),-0.161 GR,-0.0719 GR,-0.0621 GR,-0.281 GR,-0.487 GR,-0.218 GR,-0.321 GR,-0.514 GR,-0.326 GR,-0.537 GR,-0.184 GR,-0.323 GR,,,,,,,
Cc1c(N)nc([C@H](CC(N)=O)NC[C@H](N)C(N)=O)nc1C(=O)N[C@H](C(=O)N[C@H](C)[C@@H](O)[C@H](C)C(=O)N[C@H](C(=O)NCCc1nc(-c2nc(C(=O)NCCC[S+](C)C)cs2)cs1)[C@@H](C)O)[C@@H](OC1OC(CO)C(O)C(O)C1OC1OC(CO)C(O)C(OC(N)=O)C1O)c1cnc[nH]1 (some centres undefined) [Bleomycin] (max 10 µM),,,,,,,,,,,,,-0.111 GR,0.0154 GR,0.139 GR,-0.21 GR,-0.12 GR,0.481 GR,-0.107 GR
CO[C@H]1C[C@@H]2CC[C@@H](C)[C@@](O)(O2)C(=O)C(=O)N2CCCC[C@H]2C(=O)O[C@H]([C@H](C)C[C@@H]2CC[C@@H](OCCO)[C@H](OC)C2)CC(=O)[C@H](C)/C=C(\C)[C@@H](O)[C@@H](OC)C(=O)[C@H](C)C[C@H](C)/C=C/C=C/C=C/1C [Everolimus] (max 10 µM),0.489 GR,0.0309 GR,0.632 GR,0.866 GR,0.987 GR,0.817 GR,-0.378 GR,0.4 GR,0.371 GR,0.148 GR,0.0852 GR,0.14 GR,,,,,,,
CN1CC[C@H](c2c(O)cc(O)c3c(=O)cc(-c4ccccc4Cl)oc23)[C@H](O)C1 [Flavopiridol] (max 1 µM),-0.408 GR,-0.188 GR,-0.215 GR,-0.051 GR,-0.143 GR,-0.568 GR,-0.892 GR,-0.69 GR,-0.223 GR,-0.945 GR,-0.303 GR,-0.751 GR,,,,,,,
CNCc1ccc(-c2[nH]c3cc(F)cc4c3c2CCNC4=O)cc1 [Rucaparib] (max 10 µM),0.785 GR,0.18 GR,0.815 GR,0.799 GR,0.516 GR,0.68 GR,0.423 GR,0.718 GR,0.44 GR,0.569 GR,0.642 GR,0.852 GR,,,,,,,
CC[C@@H]1C(=O)N(C)c2cnc(Nc3ccc(C(=O)N[C@H]4CC[C@H](N5CCN(CC6CC6)CC5)CC4)cc3OC)nc2N1C(C)C [Volasertib/BI6727] (max 1 µM),-0.0817 GR,-0.201 GR,-0.148 GR,0.0326 GR,-0.589 GR,-0.132 GR,-0.261 GR,-0.473 GR,-0.289 GR,-0.675 GR,-0.314 GR,-0.284 GR,,,,,,,
CC1(N)CCN(c2cnc(-c3cccc(Cl)c3Cl)c(N)n2)CC1 [SHP099] (max 10 µM),0.606 GR,0.726 GR,0.797 GR,0.821 GR,0.63 GR,0.988 GR,0.444 GR,0.97 GR,0.632 GR,0.976 GR,0.75 GR,0.889 GR,,,,,,,
CNc1nc(-c2ccc3c(N)n[nH]c3c2)cc(N2C[C@@H](C(=O)NC3CCCCC3)CC[C@H]2C)n1 (max 10 µM),0.641 GR,0.147 GR,0.585 GR,0.6 GR,0.867 GR,0.869 GR,-0.738 GR,0.391 GR,0.506 GR,-0.599 GR,0.0477 GR,0.151 GR,,,,,,,
CCc1cncnc1N1CCN(Cc2nc3ccc(C(F)(F)F)cc3[nH]2)CC1 (max 10 µM),0.455 GR,0.0482 GR,0.769 GR,0.846 GR,0.873 GR,1.15 GR,0.621 GR,0.476 GR,1.02 GR,0.311 GR,0.431 GR,0.508 GR,,,,,,,
COc1cc2c(Oc3ccc4[nH]c(C)cc4c3F)ncnc2cc1OCCCN1CCCC1 [Cediranib/AZD2171] (max 10 µM),0.0275 GR,-0.689 GR,0.278 GR,0.518 GR,-0.432 GR,0.0954 GR,-0.529 GR,0.887 GR,-0.238 GR,-0.0842 GR,-0.208 GR,0.742 GR,,,,,,,
CCc1cnn2c(NCc3ccc[n+]([O-])c3)cc(N3CCCC[C@H]3CCO)nc12 (max 1 µM),-0.285 GR,-0.257 GR,-0.207 GR,-0.122 GR,-0.361 GR,-0.459 GR,-0.504 GR,-0.752 GR,-0.241 GR,-0.951 GR,-0.488 GR,-0.762 GR,,,,,,,
COc1cccc(OCCCN)c1-c1cc(Nc2cnc(C#N)cn2)n[nH]1,-0.0816 GR,-0.513 GR,0.0059 GR,-0.0281 GR,0.705 GR,-0.476 GR,-0.183 GR,0.0394 GR,0.0306 GR,0.887 GR,0.69 GR,0.715 GR,,,,,,,
CC(C)n1nc(-c2ccc3oc(N)nc3c2)c2c(N)ncnc21 [INK128/MLN0128] (max 3.162 µM),0.197 GR,-0.468 GR,0.358 GR,0.214 GR,0.229 GR,0.262 GR,-0.77 GR,-0.496 GR,0.016 GR,-0.89 GR,-0.338 GR,-0.587 GR,,,,,,,
N.N.[Cl][Pt][Cl] [Cisplatin] (max 10 µM),-0.218 GR,0.133 GR,0.006 GR,0.0896 GR,-0.0985 GR,-0.365 GR,,,0.018 GR,,,,,,,,,,
Nc1cc(C(F)(F)F)c(-c2cc(N3CCOCC3)nc(N3CCOCC3)n2)cn1 [Buparlisib/NVP-BKM120] (max 10 µM),-0.241 GR,-0.607 GR,-0.226 GR,-0.279 GR,-0.48 GR,-0.269 GR,-0.858 GR,-0.555 GR,-0.32 GR,-0.859 GR,-0.515 GR,-0.851 GR,,,,,,,
COc1cc2nccc(Oc3ccc(NC(=O)C4(C(=O)Nc5ccc(F)cc5)CC4)cc3)c2cc1OC [Cabozantinib] (max 10 µM),-0.105 GR,0.465 GR,0.76 GR,0.257 GR,0.234 GR,0.691 GR,0.743 GR,0.312 GR,0.173 GR,0.332 GR,0.412 GR,0.647 GR,,,,,,,
